Experimental data: patent publication US8710058B2, “Polymorphic forms of 3-(1-{3-[5-(1-methyl-piperidin-4-ylmethoxy)-pyrimidin-2-yl]-benzyl}-6-oxo-1,6-dihydro-pyridazin-3-yl)-benzonitrile hydrochloride salt and processes of manufacturing thereof” (MERCK PATENT GmbH, priority 2009, dated 2014)
“Also recorded” adds a separate entry of the source. Like-named read-outs stand apart in the source and are kept apart here.

Columns and labels:
[1] = Kinetic solubility (after 60 minutes) in 0.1 N HCl; settings: 0.1 N HCl (pH 1.0); for Kinetic Solubility (after 60 minutes): room temperature (approx. 20-25° C.)
[2] = Water Vapor Sorption isotherm (25° C., SMS DVS); assay type: physicochemical; settings: for Hygroscopicity classification acc. to Ph. Eur. criteria: up to 98% RH
Excerpt: The crystalline modifications of the present invention can be characterized according to standard methods which can be found e.g. in Rolf Hilfiker, ‘Polymorphism in the Pharmaceutical Industry’, Wiley-VCH, Weinheim 2006, and references therein, e.g. X-Ray diffraction (XRD; chapter 6), IR and Raman spectroscopy (chapter 5), Differential Scanning calorimetry (DSC) and Thermogravimetric Analysis (TGA) (chapter 3), Water Vapour Sorption Studies (chapter 9), or which can be found e.g. in H. G. Brittain (editor), Polymorphism in Pharmaceutical Solids, Vol. 95, Marcel Dekker Inc., New York 1999 (chapter 6: all there mentioned techniques).
FIG. 6 depicts the Water Vapour Sorption Isotherm (25° C.) (SMS DVS 1) of crystalline modification A1 of 3-(1-{3-[5-(1-methyl-piperidin-4-ylmethoxy)-pyrimidin-2-yl]-benzyl}-6-oxo-1,6-dihydro-pyridazin-3-yl)-benzonitrile hydrochloride anhydrate.
FIG. 12 depicts the Water Vapour Sorption Isotherm (25° C.) (SMS DVS Intrinsic) of crystalline modification H1 of 3-(1-{3-[5-(1-methyl-piperidin-4-ylmethoxy)-pyrimidin-2-yl]-benzyl}-6-oxo-1,6-dihydro-pyridazin-3-yl)-benzonitrile hydrochloride hydrate.
FIG. 18 depicts the Water Vapour Sorption Isotherm (25° C.) (SMS DVS Advantage) of crystalline modification NF3 of 3-(1-{3-[5-(1-methyl-piperidin-4-ylmethoxy)-pyrimidin-2-yl]-benzyl}-6-oxo-1,6-dihydro-pyridazin-3-yl)-benzonitrile hydrochloride hydrate.
FIG. 25 depicts the Water Vapour Sorption Isotherm (25° C.) (SMS DVS Intrinsic) of crystalline modification H2 of 3-(1-{3-[5-(1-methyl-piperidin-4-ylmethoxy)-pyrimidin-2-yl]-benzyl}-6-oxo-1,6-dihydro-pyridazin-3-yl)-benzonitrile hydrochloride monohydrate.
FIG. 33 depicts the Water Vapour Sorption Isotherm (25° C.) (SMS DVS Intrinsic) of crystalline modification NF6 of 3-(1-{3-[5-(1-methyl-piperidin-4-ylmethoxy)-pyrimidin-2-yl]-benzyl}-6-oxo-1,6-dihydro-pyridazin-3-yl)-benzonitrile hydrochloride anhydrate.
FIG. 38 depicts the Water Vapour Sorption Isotherm (25° C.) (SMS DVS Intrinsic) of crystalline modification NF2 of 3-(1-{3-[5-(1-methyl-piperidin-4-ylmethoxy)-pyrimidin-2-yl]-benzyl}-6-oxo-1,6-dihydro-pyridazin-3-yl)-benzonitrile hydrochloride hydrate.

[3] = Solubility in Simulated Gastric Fluid (acc. to USP); settings: 20 °C, thermodynamic from solid
[4] = Thermodynamic solubility in 0.1 N HCl at 37° C.; settings: 0.1 N HCl (pH 1.0); for Thermodynamic Solubility: 37° C.
[5] = Competitive binary slurry conversion experiments (thermodynamic stability of hydrate forms); settings: different solvents at 25° C. and 50° C.
[6] = pH 1

Structure (SMILES): CN1CCC(COc2cnc(-c3cccc(Cn4nc(-c5cccc(C#N)c5)ccc4=O)c3)nc2)CC1.Cl.O [crystalline modification H2, 3-(1-{3-[5-(1-methyl-piperidin-4-ylmethoxy)-pyrimidin-2-yl]-benzyl}-6-oxo-1,6-dihydro-pyridazin-3-yl)-benzonitrile hydrochloride monohydrate]
- Kinetic Solubility (after 60 minutes) ([1]; hydrochloride monohydrate): approx. 0.3 μg/mL
- Behaviour of hydrate water under dry RH conditions ([2]; hydrochloride monohydrate): no loss of hydrate water
- Hygroscopicity classification acc. to Ph. Eur. criteria ([2]; hydrochloride monohydrate): non-hygroscopic
- Water uptake ([2]; up to 98% relative humidity (RH range 0-98%), hydrochloride monohydrate): small water uptake levels; also recorded: very small water uptake levels
- solubility [3]: ~0.02 mg/mL
- Thermodynamic Solubility ([4]; hydrochloride monohydrate): approx. 28 μg/mL
- Thermodynamic stability compared to other hydrate forms H1 and NF3 [5]: thermodynamically stable hydrate form

Structure (SMILES): CN1CCC(COc2cnc(-c3cccc(Cn4nc(-c5cccc(C#N)c5)ccc4=O)c3)nc2)CC1.Cl.O [crystalline modification NF3, 3-(1-{3-[5-(1-methyl-piperidin-4-ylmethoxy)-pyrimidin-2-yl]-benzyl}-6-oxo-1,6-dihydro-pyridazin-3-yl)-benzonitrile hydrochloride hydrate]
- Water uptake level ([2]; at 98% relative humidity): approx. 9 wt %
- Behaviour of hydrate water under dry RH conditions ([2]; hydrochloride hydrate): dehydration of hydrate water occurs
- Hygroscopicity classification acc. to Ph. Eur. criteria ([2]; hydrochloride hydrate): slightly-hygroscopic
- Thermodynamic Solubility ([4]; hydrochloride hydrate): approx. 70 μg/mL
- Solubility compared to crystalline modification H2 ([4]; thermodynamic solubility): significantly increased solubility

Structure (SMILES): CN1CCC(COc2cnc(-c3cccc(Cn4nc(-c5cccc(C#N)c5)ccc4=O)c3)nc2)CC1.Cl.O [crystalline modification H1, 3-(1-{3-[5-(1-methyl-piperidin-4-ylmethoxy)-pyrimidin-2-yl]-benzyl}-6-oxo-1,6-dihydro-pyridazin-3-yl)-benzonitrile hydrochloride hydrate]
- Kinetic Solubility (after 60 minutes) ([1]; hydrochloride hydrate): approx. 3 μg/mL
- Solubility compared to crystalline modification H2 ([1]; kinetic solubility): significantly increased solubility
- Water uptake level ([2]; at 80% RH): > 15 wt %
- Hygroscopic behaviour ([2]; relative humidity levels >70%): strongly hygroscopic

Structure (SMILES): CN1CCC(COc2cnc(-c3cccc(Cn4nc(-c5cccc(C#N)c5)ccc4=O)c3)nc2)CC1.Cl.O [crystalline modification NF2, 3-(1-{3-[5-(1-methyl-piperidin-4-ylmethoxy)-pyrimidin-2-yl]-benzyl}-6-oxo-1,6-dihydro-pyridazin-3-yl)-benzonitrile hydrochloride hydrate]
- Weight loss in water vapor sorption ([2]; initial 40% RH sorption stage): ~10 wt %

Structure (SMILES): CN1CCC(COc2cnc(-c3cccc(Cn4nc(-c5cccc(C#N)c5)ccc4=O)c3)nc2)CC1.Cl [crystalline modification NF6, 3-(1-{3-[5-(1-methyl-piperidin-4-ylmethoxy)-pyrimidin-2-yl]-benzyl}-6-oxo-1,6-dihydro-pyridazin-3-yl)-benzonitrile hydrochloride anhydrate]
- Thermodynamic Solubility [6]: > 0.2 mg/mL
- Water uptake ([2]; 2nd adsorption cycle, up to 70% RH): approx. 8 wt %
- Water uptake in initial sorption stage ([2]; initial sorption stage at 40% relative humidity): pronounced water uptake

Structure (SMILES): CN1CCC(COc2cnc(-c3cccc(Cn4nc(-c5cccc(C#N)c5)ccc4=O)c3)nc2)CC1.Cl [crystalline modification A1, 3-(1-{3-[5-(1-methyl-piperidin-4-ylmethoxy)-pyrimidin-2-yl]-benzyl}-6-oxo-1,6-dihydro-pyridazin-3-yl)-benzonitrile hydrochloride anhydrate]
- Hygroscopic behavior ([2]; at 98% RH): strongly hygroscopic
- Water uptake level ([2]; at 98% relative humidity): > 15 wt %
- Water uptake upon adsorption ([2]; range 0-90% relative humidity): very small water uptake levels
